{"source": "paper PMC8070648", "about": "“Simultaneous Visualization of ^161Tb- and ^177Lu-Labeled Somatostatin Analogues Using Dual-Isotope SPECT Imaging” (Pharmaceutics, 2021)", "key": {"[1]": {"assay": "n-octanol/PBS distribution coefficient (logD), shake-flask method", "format": "physicochemical", "details": "PBS pH 7.4; average ± SD", "procedure": "DOTA-[Tyr^3]-octreotide (DOTATOC) was kindly provided by ITM Medical Isotopes GmbH, Munich, Germany.\nFigure S3. Graphs of bars representing the percentage of intact radiopeptide investigated at 1 h, 4 h, and 24 h after preparation and dilution in saline (10 MBq/250 μL). (A) Percentage of intact radiopeptide in solution in the absence of ascorbic acid; (B) Percentage of intact radiopeptide in solution in the presence of ascorbic acid.\nS4. Determination of n‐Octanol/PBS Distribution Coefficients (LogD Values) Purpose: The n‐octanol/PBS distribution coefficients (logD values) were assessed for each radiopeptide in order to investigate their hydrophilicity and enable comparison of […]\nDOTA‐LM3) were determined by a shake‐flask method, as previously reported. […] The logD values were calculated as the logarithm of the ratio of counts per minute (cpm) measured in the n‐octanol phase relative to the cpm measured in the PBS pH 7.4 phase. The experiments were performed three times with five replicates for each radiopeptide and the logD value was expressed as the average ± standard deviation (SD) of the values obtained in each experiment. […]\nMethods: A potential blockade of the uptake of [161Tb]Tb‐DOTA‐LM3 into AR42J cells was determined in the presence of >1000‐fold excess unlabeled DOTANOC or DOTA‐LM3 relative to the radiopeptide using the same protocol as reported in the main article. […]"}, "AR42J tumor-bearing mice": {"tested_on": "AR42J tumor-bearing mice", "assay": "Biodistribution in AR42J tumor-bearing nude mice", "format": "in vivo", "details": "i.v. 5 MBq, 1 nmol/mouse", "source_text": "Five-week-old female CD-1 nude mice were purchased from Charles River Laboratories (Sulzfeld, Germany)."}}, "data": [{"smiles": "C[C@@H](O)[C@@H]1NC(=O)[C@H](CCCCN)NC(=O)[C@@H](Cc2c[nH]c3ccccc23)NC(=O)[C@H](Cc2ccc(O)cc2)NC(=O)[C@@H](NC(=O)[C@@H](Cc2ccccc2)NC(=O)CN2CCN(CC(=O)O)CCN(CC(=O)O)CCN(CC(=O)O)CC2)CSSC[C@@H](C(=O)N[C@H](CO)[C@@H](C)O)NC1=O", "note": "[[^161Tb]Tb-DOTATOC] [metal not drawn]", "values": [{"measurement": "logD value (n-octanol/PBS distribution coefficient)", "setting": "[1]", "value": "−3.3 ± 0.2"}]}, {"smiles": "C[C@@H](O)[C@@H]1NC(=O)[C@H](CCCCN)NC(=O)[C@@H](Cc2c[nH]c3ccccc23)NC(=O)[C@H](Cc2ccc(O)cc2)NC(=O)[C@@H](NC(=O)[C@@H](Cc2ccccc2)NC(=O)CN2CCN(CC(=O)O)CCN(CC(=O)O)CCN(CC(=O)O)CC2)CSSC[C@@H](C(=O)N[C@H](CO)[C@@H](C)O)NC1=O", "note": "[[^177Lu]Lu-DOTATOC] [metal not drawn, reference compound]", "values": [{"measurement": "AR42J Tumor", "setting": "AR42J tumor-bearing mice; 2 h p.i.", "value": "8.9 ± 1.5", "unit": "% IA/g"}, {"measurement": "Adrenals", "setting": "AR42J tumor-bearing mice; 2 h p.i.", "value": "0.28 ± 0.08", "unit": "% IA/g"}, {"measurement": "Blood", "setting": "AR42J tumor-bearing mice; 2 h p.i.", "value": "≤ 0.10", "unit": "% IA/g"}, {"measurement": "Femur", "setting": "AR42J tumor-bearing mice; 2 h p.i.", "value": "≤ 0.10", "unit": "% IA/g"}, {"measurement": "Heart", "setting": "AR42J tumor-bearing mice; 2 h p.i.", "value": "≤ 0.10", "unit": "% IA/g"}, {"measurement": "Intestines", "setting": "AR42J tumor-bearing mice; 2 h p.i.", "value": "0.20 ± 0.05", "unit": "% IA/g"}, {"measurement": "Liver", "setting": "AR42J tumor-bearing mice; 2 h p.i.", "value": "0.26 ± 0.07", "unit": "% IA/g"}, {"measurement": "Lung", "setting": "AR42J tumor-bearing mice; 2 h p.i.", "value": "0.37 ± 0.06", "unit": "% IA/g"}, {"measurement": "Muscle", "setting": "AR42J tumor-bearing mice; 2 h p.i.", "value": "≤ 0.10", "unit": "% IA/g"}, {"measurement": "Pancreas", "setting": "AR42J tumor-bearing mice; 2 h p.i.", "value": "0.80 ± 0.13", "unit": "% IA/g"}, {"measurement": "Stomach", "setting": "AR42J tumor-bearing mice; 2 h p.i.", "value": "0.65 ± 0.11", "unit": "% IA/g"}, {"measurement": "Blood", "setting": "AR42J tumor-bearing mice; 24 h p.i.", "value": "≤ 0.10", "unit": "% IA/g"}, {"measurement": "Femur", "setting": "AR42J tumor-bearing mice; 24 h p.i.", "value": "≤ 0.10", "unit": "% IA/g"}, {"measurement": "Heart", "setting": "AR42J tumor-bearing mice; 24 h p.i.", "value": "≤ 0.10", "unit": "% IA/g"}, {"measurement": "Intestines", "setting": "AR42J tumor-bearing mice; 24 h p.i.", "value": "≤ 0.10", "unit": "% IA/g"}, {"measurement": "Kidneys", "setting": "AR42J tumor-bearing mice; 24 h p.i.", "value": "5.9 ± 2.1", "unit": "% IA/g"}, {"measurement": "Liver", "setting": "AR42J tumor-bearing mice; 24 h p.i.", "value": "0.13 ± 0.02", "unit": "% IA/g"}, {"measurement": "Muscle", "setting": "AR42J tumor-bearing mice; 24 h p.i.", "value": "≤ 0.10", "unit": "% IA/g"}, {"measurement": "Pancreas", "setting": "AR42J tumor-bearing mice; 24 h p.i.", "value": "0.21 ± 0.04", "unit": "% IA/g"}, {"measurement": "Spleen", "setting": "AR42J tumor-bearing mice; 24 h p.i.", "value": "≤ 0.10", "unit": "% IA/g"}, {"measurement": "logD value (n-octanol/PBS distribution coefficient)", "setting": "[1]", "value": "−3.1 ± 0.2"}]}]}
